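Test compounds were applied to cells in 96-well plates for 48 hours at 5 doses. At the GI50, growth is halved. TGI denotes the concentration required for complete inhibition of growth.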
Key:
Assay in all cases: growth of human tumour cells (NCI), 48 h
[1] = system: SR leukemia
[2] = system: SF-268 CNS
[3] = system: A498 renal
[4] = system: KM12 colon
[5] = system: ACHN renal
[6] = system: A549 NSCLC
[7] = system: BT-549 breast
[8] = system: LOX IMVI melanoma
[9] = system: 786-0 renal
[10] = system: DU-145 prostate

| Structure (SMILES) | TGI [1] | TGI [2] | TGI [3] | TGI [4] | TGI [5] | TGI [6] | TGI [7] | TGI [8] | TGI [9] | TGI [10] | GI50 [1] | GI50 [2] | GI50 [3] | GI50 [4] | GI50 [5] | GI50 [6] | GI50 [7] | GI50 [8] | GI50 [9] | GI50 [10] |
| --- | --- | --- | --- | --- | --- | --- | --- | --- | --- | --- | --- | --- | --- | --- | --- | --- | --- | --- | --- | --- |
| Cc1cc(Cc2cc(C)c(NC(=O)C(=O)C3CCC4=C(SC5C=CC=CC5N4)C3=O)c(C(C)C)c2)cc(C(C)C)c1NC(=O)C(=O)C1CCC2=C(SC3C=CC=CC3N2)C1=O (stereo not given) | > 100 µM | > 100 µM | > 100 µM | > 100 µM | > 100 µM | > 100 µM | > 100 µM | > 100 µM | > 100 µM | > 100 µM | – | – | – | – | – | – | – | – | – | – |
| c1ccc(CN2COc3c(ccc4c3OCN(Cc3ccccc3)C4)C2)cc1 | > 100 µM | > 35.6 µM | > 30.3 µM | > 100 µM | > 100 µM | > 100 µM | > 100 µM | > 100 µM | > 100 µM | > 100 µM | 0.534 µM | 0.605 µM | 1.19 µM | 0.621 µM | 0.316 µM | 0.477 µM | 2.92 µM | 0.825 µM | 0.809 µM | 0.569 µM |
| C#Cc1c(/C=C/C(=O)OCC)ccc2ccccc12 | 17 µM | 58.5 µM | 37.8 µM | 23.9 µM | 31.7 µM | > 100 µM | 44.7 µM | 27.4 µM | 74 µM | 75.6 µM | 3.94 µM | 18.2 µM | 15.2 µM | 5.84 µM | 14.6 µM | 30.4 µM | 18.7 µM | 13.1 µM | 27.5 µM | 28.9 µM |
| CCN(CC)CCCNCc1cc(-c2ccccc2)nc2ccccc12 | 13.1 µM | > 100 µM | 41.3 µM | > 100 µM | > 100 µM | > 100 µM | 15.9 µM | 11.4 µM | 28.3 µM | > 100 µM | 0.348 µM | 4.72 µM | 12.3 µM | 15 µM | 33.3 µM | 81.6 µM | 3.77 µM | 2.32 µM | 11.1 µM | 21.2 µM |
| O=c1cc(-c2cccc3c2Sc2ccccc2S3)oc(N2CCOCC2)c1 | 27.3 µM | 24.2 µM | 3.79 µM | 21.4 µM | 26.5 µM | 26.7 µM | 17 µM | 37.4 µM | 18.3 µM | 20.5 µM | 4.21 µM | 7.76 µM | 0.323 µM | 8.04 µM | 11.4 µM | 10.4 µM | 4.25 µM | 11.4 µM | 4.05 µM | 8.19 µM |
| CCN(CC)CC(O)CNc1c2ccc([N+](=O)[O-])cc2nc2cc(OC)c(OC)cc12 (stereo not given) | 11.1 µM | 1.34 µM | 3.08 µM | 1.37 µM | 2.36 µM | 0.854 µM | 3.85 µM | 0.662 µM | 3.88 µM | 1.3 µM | 0.303 µM | 0.293 µM | 1.36 µM | 0.343 µM | 0.396 µM | 0.262 µM | 1.81 µM | 0.238 µM | 0.659 µM | 0.304 µM |
| N=c1ccn(O)cc1/C=C1/C(=O)Nc2ccccc21 | > 100 µM | > 100 µM | > 100 µM | > 100 µM | > 100 µM | > 100 µM | > 100 µM | > 100 µM | > 100 µM | > 100 µM | > 100 µM | > 100 µM | > 100 µM | > 100 µM | > 100 µM | > 100 µM | > 100 µM | > 100 µM | > 100 µM | > 100 µM |
